According to US20260103465A1, “GLYCOGEN SYNTHASE KINASE 3 INHIBITORS AND USES THEREOF” (The Broad Institute, Inc., priority 2023, published 2026):
Like-named read-outs stand apart in the source and are kept apart here.

Legend:
[1] = Human liver microsomal stability; format: in vitro ADME; conditions: human liver microsomes
Protocol: Stability of compound (5 μL of a 10 mM DMSO solution) in human liver microsomes was tested in duplicate by incubating compound at 1 μM for 60 minutes at 37° C. Compound level at 60 minutes was compared to level at 0 minutes, and percent remaining was calculated. Order by selecting Microsomal Stability in Prometheus, checking boxes for desired species. Assay Controls: microsomes with NADPH without compound-matrix interference. Microsomes plus compound without NADPH—non-enzymatic instability.

[2] = system: MDR1-MDCK cell monolayers; test: MDR1/MDCK permeability assay; format: in vitro ADME; conditions: for MDCK Permeability (MDR1-MDCK); Mean; Papp(A-B) (10^−6 cm/s): A to B; for MDCK Permeability (MDR1-MDCK); Mean; Papp(B-A) (10^−6 cm/s): B to A; for MIDCK Permeability (MDR1-MDCK); Mean; P. Ratio(B-A/A-B) Efflux Ratio / MDCK Permeability (MDR1-MDCK); Mean; P. Ratio(B-A/A-B) Efflux Ratio: Papp B-A/A-B
From the text: The MDR1/MDCK assay is run at WuXi and Absorption Systems. This assay is used to determine the blood-brain barrier (BBB) penetration potential of a test compound using MDR1-MDCK cell monolayers. Catalog number EA203.
• The percent recovery of the test compound from the Transwell® wells containing MDR1-MDCK cell monolayers • The apparent permeability (Papp) in both directions • The efflux ratio (Papp B to A)/(Papp A to B) • The blood-brain barrier penetration potential classification: • High when • Papp A to B≥3.0×10^−6 cm/s, and efflux<3.0 • Moderate when • Papp A to B≥3.0×10^−6 cm/s, and 10>efflux≥3.0 • Low when either • Papp A to B≥3.0×10^−6 cm/s, and […], or when • Papp A to B<[…].
• Test compound at 5 μM in HBSSg with maximum DMSO concentration not greater than 1%.
• Confluent monolayers of MDR1-MDCK cells, 7 to 11 days old.
• Receiver well with 1% BSA in modified Hanks buffer (HBSSg) • Apical and basolateral side at pH 7.4 • Dose two monolayers in each direction (N=2) • Dose apical side for (A to B) assessment • Dose basolateral side for (B to A) assessment • Sample both apical and basolateral sides at 120 minutes • Determine the concentrations of test compound using a generic LC-MS/MS method with a minimum 4 point calibration curve.
• The quality of the cell monolayer batch is verified using control compounds before monolayers are released for use • The quality of each monolayer used in the assay is verified by a TEER measurement and by calculating the Papp for a control compound.

[3] = target: T1, GSK3a (GST-full length GSK3a) (Homo sapiens, UniProt P49840); test: GSK3a TR-FRET kinase inhibition assay; format: biochemical
T1 construct: GST-full length GSK3a [SignalChem G08-10G]; purchased SignalChem G08-10G
T1 sequence (P49840 whole entry): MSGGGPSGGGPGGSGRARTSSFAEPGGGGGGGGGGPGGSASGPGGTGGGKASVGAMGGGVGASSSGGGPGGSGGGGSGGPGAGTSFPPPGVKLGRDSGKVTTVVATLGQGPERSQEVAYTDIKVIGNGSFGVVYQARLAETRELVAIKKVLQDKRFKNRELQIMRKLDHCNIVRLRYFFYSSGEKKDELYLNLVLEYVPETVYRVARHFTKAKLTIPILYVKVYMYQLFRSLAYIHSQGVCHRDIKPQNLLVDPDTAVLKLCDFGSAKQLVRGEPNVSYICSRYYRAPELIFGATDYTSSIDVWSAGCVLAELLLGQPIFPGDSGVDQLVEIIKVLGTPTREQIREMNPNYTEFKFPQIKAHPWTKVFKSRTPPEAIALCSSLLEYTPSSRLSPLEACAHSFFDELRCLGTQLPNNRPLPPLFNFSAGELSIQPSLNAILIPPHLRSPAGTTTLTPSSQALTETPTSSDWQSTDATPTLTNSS
Method in brief: (§1)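 IC50 derived from normalized 665/615 TR-FRET signal (Tb anti-pSer641 antibody, streptavidin-d2), read after EDTA stop. Reaction: 1 nM GST-full-length enzyme, 30 min compound pre-incubation, 100 min at ambient temperature in Tris pH 7.5 with 1% DMSO, 200 nM biotinylated primed glycogen synthase peptide, ATP 2 μM to 1 mM.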

[4] = target: T2, GSK3b (GST-full length GSK3b) (Homo sapiens, UniProt P49841); test: GSK3b TR-FRET kinase inhibition assay; format: biochemical
T2 construct: GST-full length GSK3b: [SignalChem G08-9G]; purchased SignalChem G08-9G
T2 sequence (P49841 whole entry): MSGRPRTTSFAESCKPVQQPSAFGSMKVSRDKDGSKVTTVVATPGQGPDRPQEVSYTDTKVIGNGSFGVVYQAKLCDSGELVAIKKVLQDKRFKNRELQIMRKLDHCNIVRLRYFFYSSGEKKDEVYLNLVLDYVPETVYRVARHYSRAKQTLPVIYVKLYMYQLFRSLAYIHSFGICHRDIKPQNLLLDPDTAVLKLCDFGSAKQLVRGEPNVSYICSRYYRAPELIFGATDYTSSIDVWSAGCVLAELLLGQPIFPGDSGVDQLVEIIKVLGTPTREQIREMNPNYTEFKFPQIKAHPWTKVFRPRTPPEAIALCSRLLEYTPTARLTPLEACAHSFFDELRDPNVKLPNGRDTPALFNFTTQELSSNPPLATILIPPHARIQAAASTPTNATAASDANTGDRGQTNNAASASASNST
Method in brief: as §1

[5] = 1 mM ATP, Table 3, read-out: GSK3b TR-FRET 1 mM ATP Average IC50
[6] = 4 μM ATP, read-out: GSK3α TR-FRET 4 μM ATP GMean IC50
[7] = 2 μM ATP, read-out: GSK3β TR-FRET 2 μM ATP GMean IC50
[8] = 1 mM ATP, Table 3, read-out: GSK3a TR-FRET 1 mM ATP Average IC50
[9] = 1 mM ATP, Table 4, read-out: GSK3α TR-FRET 1 mM ATP GMean IC50
[10] = 1 mM ATP, Table 4, read-out: GSK3β TR-FRET 1 mM ATP GMean IC50

| Compound | Microsome Stability (Human) (DMPK_BIIB); Mean; in vitro t1/2 ([1]; Table 3) [min] | MDCK Permeability (MDR1-MDCK); Mean; Papp(A-B) (10^−6 cm/s) ([2]; Table 3) | MDCK Permeability (MDR1-MDCK); Mean; Papp(B-A) (10^−6 cm/s) ([2]; Table 3) | MIDCK Permeability (MDR1-MDCK); Mean; P. Ratio(B-A/A-B) Efflux Ratio ([2]; Table 3) | IC50 ([3]; 10 μM ATP, read-out: GSK3a 10 μM ATP Average IC50) [µM] | IC50 ([4]; 10 μM ATP, read-out: GSK3b 10 μM ATP Average IC50) [µM] | IC50 ([4]; 100 μM ATP, read-out: GSK3b 100 μM ATP Average IC50) [µM] | IC50 [4, 5] [µM] | Microsome Stability (Human) (DMPK_BIIB); Mean; in vitro t1/2 ([1]; Table 4) [min] | MDCK Permeability (MDR1-MDCK); Mean; Papp(A-B) (10^−6 cm/s) ([2]; Table 4) | MDCK Permeability (MDR1-MDCK); Mean; Papp(B-A) (10^−6 cm/s) ([2]; Table 4) | MDCK Permeability (MDR1-MDCK); Mean; P. Ratio(B-A/A-B) Efflux Ratio ([2]; Table 4) | IC50 [3, 6] [µM] | IC50 [4, 7] [µM] | IC50 [3, 8] [µM] | IC50 [3, 9] [µM] | IC50 [4, 10] [µM] |
| --- | --- | --- | --- | --- | --- | --- | --- | --- | --- | --- | --- | --- | --- | --- | --- | --- | --- |
| CCC1(c2cccc(-c3ccncc3OC)c2)C2=C(CC(C)(C)CC2=O)Nc2ncc(F)cc21 (single isomer, unassigned) [Compound 1037B] |  |  |  |  |  |  |  |  | 5.6 | 2.7 10^−6 cm/s | 26 10^−6 cm/s | 9.6 | ≤ 0.1 | ≤ 0.1 |  |  |  |
| CCC1(c2cccc(-c3ccnn3C)c2)C2=C(CC(C)(C)CC2=O)Nc2ncc(F)cc21 (single isomer, unassigned) [Compound 1025A] |  |  |  |  |  |  |  |  | 5.5 | 4.6 10^−6 cm/s | 42 10^−6 cm/s | 9.1 | ≤ 0.1 | ≤ 0.1 |  |  |  |
| CCC1(c2ccccc2)C2=C(Nc3ncccc31)C(F)C(C)(C)CC2=O (single isomer, unassigned) [Compound 1006C] |  |  |  |  |  |  |  |  | 37 | 18 10^−6 cm/s | 31 10^−6 cm/s | 1.8 | 1 to 5 | 1 to 5 |  |  |  |
| CCC1(c2cccc(-c3ccnc4c3CCC4)c2)C2=C(CC(C)(C)CC2=O)Nc2ncccc21 (single isomer, unassigned) [Compound 1034B] |  |  |  |  |  |  |  |  | 4.1 | 7.6 10^−6 cm/s | 25 10^−6 cm/s | 3.3 | ≤ 0.1 | ≤ 0.1 |  |  |  |
| CCC1(c2cccc(-c3ccnn3C)c2)C2=C(CC(C)(C)CC2=O)Nc2ncccc21 (single isomer, unassigned) [Compound 1019A] |  |  |  |  |  |  |  |  | 4.8 | 4.2 10^−6 cm/s | 39 10^−6 cm/s | 9.5 | ≤ 0.1 | ≤ 0.1 |  | 0.1 to 1 | 1 to 5 |
| CCC1(c2cccc(-c3cn(C)nc3C)c2)C2=C(CC(C)(C)CC2=O)Nc2ncc(F)cc21 (single isomer, unassigned) [Compound 1032B] |  |  |  |  |  |  |  |  | 6.4 | 2.3 10^−6 cm/s | 26 10^−6 cm/s | 11 | ≤ 0.1 | ≤ 0.1 |  |  |  |

Other lines, results leading:

| Microsome Stability (Human) (DMPK_BIIB); Mean; in vitro t1/2 ([1]; Table 3) [min] | MDCK Permeability (MDR1-MDCK); Mean; Papp(A-B) (10^−6 cm/s) ([2]; Table 3) | MDCK Permeability (MDR1-MDCK); Mean; Papp(B-A) (10^−6 cm/s) ([2]; Table 3) | MIDCK Permeability (MDR1-MDCK); Mean; P. Ratio(B-A/A-B) Efflux Ratio ([2]; Table 3) | IC50 ([3]; 10 μM ATP, read-out: GSK3a 10 μM ATP Average IC50) [µM] | IC50 ([4]; 10 μM ATP, read-out: GSK3b 10 μM ATP Average IC50) [µM] | IC50 ([4]; 100 μM ATP, read-out: GSK3b 100 μM ATP Average IC50) [µM] | IC50 [4, 5] [µM] | Microsome Stability (Human) (DMPK_BIIB); Mean; in vitro t1/2 ([1]; Table 4) [min] | MDCK Permeability (MDR1-MDCK); Mean; Papp(A-B) (10^−6 cm/s) ([2]; Table 4) | MDCK Permeability (MDR1-MDCK); Mean; Papp(B-A) (10^−6 cm/s) ([2]; Table 4) | MDCK Permeability (MDR1-MDCK); Mean; P. Ratio(B-A/A-B) Efflux Ratio ([2]; Table 4) | IC50 [3, 6] [µM] | IC50 [4, 7] [µM] | IC50 [3, 8] [µM] | IC50 [3, 9] [µM] | IC50 [4, 10] [µM] | Compound |
| --- | --- | --- | --- | --- | --- | --- | --- | --- | --- | --- | --- | --- | --- | --- | --- | --- | --- |
| 11 | 2.1 10^−6 cm/s | 1.2 10^−6 cm/s | 0.60 | 20 to 60 | 5 to 20 | 20 to 60 | 5 to 20 |  |  |  |  |  |  |  |  |  | CC(C)(C)Cc1cnc2c(c1)C(C)(c1ccccc1)C1=C(CC(C)(C)CC1=O)N2 (single isomer, unassigned) [Compound 129A] |
| >145 | 20 10^−6 cm/s | 10 10^−6 cm/s | 0.53 |  |  |  | 1 to 5 |  |  |  |  |  |  | 1 to 5 |  |  | CC1(C)CC(=O)C2=C(C1)Nc1ncc(C(F)(F)F)cc1C2(C)c1ccccc1 (single isomer, unassigned) [Compound 128B] |
|  |  |  |  |  |  |  | 5 to 20 | 6.6 | 3.1 10^−6 cm/s | 25 10^−6 cm/s | 8.3 | ≤ 0.1 | ≤ 0.1 | 5 to 20 | ≤ 0.1 | 0.1 to 1 | CCC1(c2cccc(-c3c(F)cncc3OC)c2)C2=C(CC(C)(C)CC2=O)Nc2ncccc21 (single isomer, unassigned) [Compound 154B] |
